# Test results from patent US20130096067A1, “DROSOPHILA TUMOR STEM CELL MODEL AND USES THEREOF” (priority 2011, published 2013).
# Like-named read-outs stand apart in the source and are kept apart here. Square brackets hold non-standard residues; d marks the D form. Peptide text beside a SMILES is read from it. * marks the point of attachment. Nle = CCCC[C@H](N)C(=O)O; Cbz = O=C(OCc1ccccc1)*
# Test system: Raf-1^gof intestinal tumors
# Settings: for Log2 (fold) (luciferase activity, log2 of the fold difference relative to DMSO controls) / Fold (luciferase activity, fold difference relative to DMSO controls): screen of 480 ICCB compounds in vials, compounds fed to flies with one-day old Raf-1^gof tumors, esg-Gal4 luciferase
# [1] = assessed three days later, averaged from multiple wells
# [2] = ICCB compounds fed in vials to flies with one-day old Raf-1^gof tumors, assessed three days later
# [3] = ICCB compounds fed in vials to flies with one-day old Raf-1^gof tumors, assessed three days later, averaged from multiple wells
# Throughout, for Fold (luciferase activity relative to DMSO controls): test concentration or dose not given here.
# Throughout, for Fold (luciferase activity, fold difference relative to DMSO controls): test concentration or dose not given here.
# Throughout, for Log2 (fold) (luciferase activity, log2 of the fold difference relative to DMSO controls): test concentration or dose not given here.
# Throughout, for Log2 (fold) of luciferase activity relative to DMSO controls: test concentration or dose not given here.
Molecule,"Log2 (fold) (luciferase activity, log2 of the fold difference relative to DMSO controls) (assessed three days later)","Fold (luciferase activity, fold difference relative to DMSO controls) [1]",Log2 (fold) of luciferase activity relative to DMSO controls [2],Fold (luciferase activity relative to DMSO controls) [3] [fold],further results
O=C[C@@H]1CCCN1C(=O)[C@@H]1CCCN1C(=O)OCc1ccccc1 [Z-prolyl-prolinal] (Cbz-Pro-Pro-aldehyde),−0.692,0.619,,,
NC12CC3CC(CC(C3)C1)C2 [AMANTIDINE],−0.252,0.840,,,
C[C@@H](N)[C@H]1CC[C@H](C(=O)Nc2ccncc2)CC1 [Y-27632],−0.380,0.768,,,
"CCCCCCCCCCCCCC(=O)N[C@@H](C)[C@H](O)c1ccccc1 [MAPP, L-erythro]",,,0.104,1.075,
CCN(CC)CCNC(=O)c1ccc(N)cc1 [PROCAINAMIDE],−0.346,0.787,,,
COc1ccc2c(c1)c(CC(=O)O)c(C)n2C(=O)c1ccc(Cl)cc1 [indomethacin],−0.549,0.683,,,
O=c1[nH]c2cc(C(F)(F)F)ccc2n1-c1cc(C(F)(F)F)ccc1O [NS-1619],−0.495,0.709,,,
calphostin C,−0.707,0.613,,,
CN/C(=N\c1ccc(C2=NNC(=O)CC2C)cc1)NC#N (stereo not drawn) [siguazodan],−0.376,0.771,,,
CCCCC[C@H](O)/C=C/[C@@H]1[C@@H](C/C=C\CCCC(=O)O)[C@H]2CO[C@@H]1C2 [U-46619],,,−0.063,0.957,
C#CCN(C)C(C)Cc1ccccc1 (stereo not drawn) [Deprenyl],−0.642,0.641,,,
CC(C)(O)[C@H]1O[C@H]2CC[C@@]3(C)[C@@](O)(CC[C@H]4Cc5c([nH]c6ccccc56)[C@@]43C)C2=CC1=O [PAXILLINE],,,−0.078,0.948,
CC/C=C\C/C=C\C/C=C\C/C=C\C/C=C\CCCC(=O)O [EICOSAPENTAENOIC ACID (20:5 n-3)],,,0.024,1.017,
PROSTAGLANDIN J2,−0.525,0.695,,,
O=C1C2CCN(CC2)C1(CO)CO [PRIMA-1],,,−0.110,0.926,
CCCCCCCCCCCCC/C=C/[C@@H](O)[C@H](CO)NC(=O)CCCCCCCCCCCCCCC [C16 CERAMIDE],−0.496,0.709,,,
C1CCC(N=C(NC23CC4CC(CC(C4)C2)C3)N2CCOCC2)CC1.Cl [U-37883A],−0.572,0.673,,,
"CCCCC/C=C\C/C=C\C/C=C\C/C=C\CCCC(=O)O [ARACHIDONIC ACID (20:4, n-6)]",,,−0.045,0.969,
CCCCCCCCCCCCCCCCCCOC[C@H](COP(=O)([O-])OCC[N+](C)(C)C)OC(C)=O [PAF C18],−0.455,0.729,,,
CCCCC[C@H](O)/C=C/[C@@H]1[C@H](C/C=C\CCCC(=O)O)[C@@H](O)C[C@H]1O [8-EPI-PROSTAGLANDIN F2a],−0.657,0.634,,,
CCCCCCCCCCCCCCCC(=O)C1=C(O)C(CO)OC1=O (stereo not drawn) [RK-682],−0.492,0.711,,,
CC(=O)N[C@@H](CSC/C=C(\C)CC/C=C(\C)CC/C=C(\C)CCC=C(C)C)C(=O)O [AGGC],,,,,Fold (luciferase activity relative to DMSO controls) (in vivo): 1.001 fold; Log2 (fold) of luciferase activity relative to DMSO controls (in vivo): 0.001
CCCCc1oc2ccccc2c1C(=O)c1cc(I)c(OCCN(CC)CC)c(I)c1 [AMIODARONE],,,0.102,1.074,

Molecule,"Log2 (fold) (luciferase activity, log2 of the fold difference relative to DMSO controls) (assessed three days later)","Fold (luciferase activity, fold difference relative to DMSO controls) [1]",Log2 (fold) of luciferase activity relative to DMSO controls [2],Fold (luciferase activity relative to DMSO controls) [3] [fold],further results
CN(C)CCCn1cc(C2=C(c3c[nH]c4ccccc34)C(=O)NC2=O)c2ccccc21 [GF-109203X],−0.238,0.848,,,
CCCC[C@@H](C=O)NC(=O)[C@H](CC(C)C)NC(=O)[C@H](CC(C)C)NC(C)=O [Ac-Leu-Leu-Nle-CHO] (Ac-Leu-Leu-[Nle]-aldehyde),−0.431,0.742,,,
CCCCCCCC/C=C\CCCCCCCCOC[C@H](COP(=O)([O-])OCC[N+](C)(C)C)OC(C)=O [PAF C18:1],−0.420,0.747,,,
O=C(O)CNC(=O)C(CS)Cc1ccccc1 (stereo not drawn) [Thiorphan],−0.673,0.627,,,
"CCCCCCCCCCCCCCCC(=O)OCC(COP(=O)(O)O)OC(=O)CCCCCCCCCCCCCCC (stereo not drawn) [PHOSPHATIDIC ACID, DIPALMITOYL]",−0.288,0.819,,,
CC[C@H](C)C(=O)O[C@H]1C[C@@H](C)C=C2C=C[C@H](C)[C@H](CC[C@@H]3C[C@@H](O)CC(=O)O3)[C@H]21 [Mevinolin (lovastatin)],−0.512,0.701,,,
"CCCCCC1OC1C/C=C\C/C=C\C/C=C\CCCC(=O)O (stereo not drawn) [14,15-EPOXYEICOSATRIENOIC ACID]",,,0.322,1.250,
CCOC(=O)C1=C(C)NC(=S)NC1c1cccc(O)c1 (stereo not drawn) [Monastrol],−0.607,0.656,,,
CCCCCCCCCCOCCC(=O)O [4-OXATETRADECANOIC ACID],,,0.004,1.003,
COC1=C2C[C@@H](C)C[C@H](OC)[C@H](O)[C@@H](C)/C=C(\C)[C@H](OC(N)=O)[C@@H](OC)/C=C\C=C(/C)C(=O)NC(=CC1=O)C2=O [geldanamycin],−0.772,0.586,,,
LY-83583,−0.465,0.725,,,
"CCCCC[C@H](O)CC[C@H]1[C@H](O)CC(=O)[C@@H]1CCCCCCC(=O)O [13,14-DIHYDRO-PGE1]",,,0.587,1.502,
O=C1Nc2ccccc2/C1=C1/Nc2ccccc2/C1=N\O [Indirubin-3′-monoxime],,,−0.025,0.983,
"CCCCC[C@H](O)/C=C/[C@@H]1[C@@H](C/C=C\CCCC(=O)O)[C@@H](O)C[C@@H]1O [9a,11b-PROSTAGLANDIN F2]",−0.294,0.815,,,
"CCCCC/C=C\C/C=C\C/C=C\C/C=C\CCCC(=O)NCCO [ANANDAMIDE (20:4, n-6)]",,,0.054,1.038,
CCCCCCCC/C=C\C/C=C\C/C=C\CCCC(=O)O [MEAD ACID (20:3 n-9)],−0.279,0.824,,,
COCc1cc(O)c(O)c(O)c1-c1c(COC)cc(O)c(O)c1O [HBDDE],−0.233,0.851,,,
COC(=O)[C@@H](N)CCCNC(=N)N[N+](=O)[O-] [L-NAME],−0.446,0.734,,,
O=C(O)c1ccc(/C2=C3\C=CC(=N3)/C(c3ccc(C(=O)O)cc3)=c3/cc/c4[n]3[Mn]([Cl])[n]3c2ccc3/C(c2ccc(C(=O)O)cc2)=C2/C=CC(=N2)\C=4c2ccc(C(=O)O)cc2)cc1 [MnTBAP],−0.245,0.844,,,
CCCCC/C=C\C/C=C\C/C=C\C/C=C\CCCC(=O)O[C@H](COCCCCCCCCCCCCCCCC)COP(=O)([O-])OCC[N+](C)(C)C [ARACHIDONOYL-PAF],−0.439,0.738,,,
CCCCCCCCCCCCCCCCOC[C@H](COP(=O)([O-])OCC[N+](C)(C)C)OC(=O)NC [C-PAF],,,0.119,1.086,
"CCCCCCCC/C=C\CCCCCCCC(=O)OCC(CO)OC(=O)CCCCCCC/C=C\CCCCCCCC (stereo not drawn) [1,2-DIOLEOYL-GLYCEROL (18:1)]",,,0.443,1.359,
"CC/C(=C(\c1ccccc1)c1ccc(OCCN(C)C)cc1)c1ccccc1 [tamoxifen, reference compound]",−1.562,0.339,,,"Fold (Table 3 summary of hits, Screen ICCB, luciferase relative to DMSO, fed three consecutive days in vials): 0.339 fold"
